The record followed here is US9241964B2, “Composition from Sphaeranthus indicus and Garcinia mangostana for the control of metabolic syndrome” (LAILA NUTRACEUTICALS, priority 2009, dated 2016).

The structures appear in SMILES notation.

Test [1] deals with 3T3-L1 mouse pre-adipocyte cells. Nature of the test: Inhibition of lipid accumulation in differentiated adipocytes (Oil Red O). The class given is cell-based. As to conditions: Mus musculus; at 0.5 μg/ml; 3T3-L1 (Table I). On the procedure:
The inhibition of fat accumulation in the treated cells was compared with the mock treated differentiated adipocytes and percentage inhibition was measured.
One hundred thousand 3T3-L1 […] pre-adipocyte cells in Dulbecco's Modified Eagles Medium (DMEM) containing 10% Fetal Bovine Serum (FBS) were taken into each well of a 24-well plate and incubated for 48 h at 37° C. and 5% CO2. The differentiation of pre-adipocyte cells was initiated in a differentiation medium containing 10 μg/ml insulin, 1.0 μM dexamethasone, and 0.5 mM isobutylmethylxanthine (IBMX) for 48 h. After this the medium was replaced by DMEM containing 10 μg/ml insulin and incubated for 3 days. Then the differentiating cells were treated 10 μg/ml of Sphaeranthus indicus ethyl acetate extract (LI/DD-II/054A/01) and 0.5 μg/ml of 7-hydroxyfrullanolide (LI054A01) and maintained in the medium for another 3-5 days. The cells incubated with 0.1% DMSO were considered as the vehicle control. After the incubation period, cells were washed with phosphate buffered saline (PBS) and fixed with 10% buffered formalin for 1 h at room temperature. One small aliquot of cell suspension was separated for cell counting in hemocytometer chamber. Fixed cells were stained with Oil Red O solution to measure the cellular neutral lipid accumulation. Briefly, cells were washed with PBS, fixed with 10% buffered formalin and stained with Oil Red O solution (0.5 g in 100 ml isopropanol) for 10 min. After removing the staining solution, the dye retained in the cells will be eluted into isopropanol and OD measured at 550 nm. The inhibition of fat accumulation in the treated cells was compared with the mock treated differentiated adipocytes. The treated and control cells were also analyzed and compared for inhibition of lipid accumulation visually under microscope and recorded digitally in suitable image capture system. The anti-adipogenic activities shown by Sphaeranthus Indicus ethyl acetate extract (LI/DD-II/054A/01) and LIO054A01 are summarized in the following table.

Another test relates to CD36. Nature of the test: Immunoblot of CD36 in 3T3-L1 adipocytes. The settings on record: immunoblot normalized with actin. The class given is cell-based, mouse. The source says: (§1) The inventors have then evaluated the modulation of metabolic biomarkers those are primarily responsible for the adipogenesis processes, insulin resistance in type 2 diabetes, obesity, metabolic syndrome and other metabolic disorders such as Peroxisome proliferator-activated receptor gamma (PPARγ), CD36, adipocyte fatty acid binding protein 4 (FABP4 or aP2), Perilipin, and beta-3 Adrenergic Receptor (β3AR) during adipogenesis process in 3T3-L1 adipocytes by ethyl actate extract (LI/DD-II/054A/01) of Sphaeranthus indicus and 7-hydroxyfrullanolide (LI054A01) using an immunoblot assay. […] The protein extracts were evaluated by immunoblot assay, and the immuno-reactive bands were developed with West-pico chemiluminescent substrate and the blot images were captured in a Kodak Image Station, normalized with expression of actin.
(§2) Experimental protocol: Mouse pre-adipocyte 3T3-L1 cells are maintained in Dulbecco's Modified Eagles Medium (DMEM) supplemented with 2 mM glutamine, 4.5 g/L glucose and 10% fetal bovine serum. […] Protein content was measured in Bradford method by using Coomassie blue dye and cell lysates were stored in aliquots at −80° C. until further use. […]
(§3) Inhibition of protein expression of biomarker molecules adipocytes in presence or absence of Sphaeranthus indicus extract LI/DD-II/054A/01 and 7-hydroxyfrullanolide (LI054A01) was evaluated in immunoblot assay. […]

The test system of a further test is aP2/FABP4. Nature of the test: Immunoblot of aP2/FABP4 in 3T3-L1 adipocytes. The test is classed as cell-based, mouse. As to conditions: immunoblot normalized with actin.
Text: as §1, §2, §3

In turn, `C=C1C(=O)O[C@H]2C3=C(C)CCC[C@]3(C)CC[C@@]12O` [LI054A01, 7-α-hydroxy-4,11(13)-eudesmadien-12,6-olide] displayed an inhibition at 0.5 µg/mL in test [1] of 68.7%. Besides, in the test with CD36, the “adipocyte CD36 protein level” value is “potently ameliorated”. In addition, the aP2/FABP4 protein level entry in the test with aP2/FABP4 was “potently ameliorated”.
